For the assay, the system named is HeLa cells. Description: Cell-based pharmacodynamic assay (CellTiter-Glo proliferation inhibition), HeLa. As to conditions: human cervical cancer HeLa cells; 72 hours incubation; CellTiter-Glo luminescence; read-out: IC50 against HeLa cells. The procedure: Complete media such as RPMI 1640 (Gibco, A1049101), EMEM (ATCC, 30-2003), DMEM (Gibco, C11995500CP), McCoy's 5A (Gibco, 16600082), and F-12K (ATCC, 30-2004) were prepared by supplementing with varying concentrations of FBS (Biological Industries, 04-002-1A) and 1% Penicillin-Streptomycin (Gibco, 15140122) and was thoroughly mixed. Tumor cell lines including HeLa (ATCC, CCL-2; EMEM + 10% FBS), TOV-21G (Cobioer, CBP60292; 1:1 mixture of MCDB 105 and Medium 199 + 15% FBS), OVCAR-3 (ATCC, HTB-161; RPMI 1640 + 20% FBS + 0.01 mg/ml bovine insulin), SK-OV-3 (ATCC, HTB-77; McCoy's 5A + 10% FBS), A2780 (Cobioer, CBP60283; RPMI 1640 + 10% FBS), OC316 (Cobioer, CBP60620; RPMI 1640 + 10% FBS), HuH-7 (Cobioer, CBP60202; DMEM + 10% FBS), SNU-398 (ATCC, CRL-2233; RPMI 1640 + 10% FBS), NCI-H2286 (ATCC, CRL-5938; RPMI 1640 + 5% FBS), NCI-H82 (ATCC, HTB-175; RPMI 1640 + 10% FBS), A549 (ATCC, CCL-185; F-12K + 10% FBS), SK-MEL-3 (ATCC, HTB-69; McCoy's 5A + 15% FBS), PSN-1 (Cobioer, CBP61215; RPMI 1640 + 10% FBS), LoVo (ATCC, CCL-229; F-12K + 10% FBS), DLD-1 (ATCC, CCL-221; RPMI 1640 + 10% FBS), HCT-15 (ATCC, CCL-225; RPMI 1640 + 10% FBS), A498 (ATCC, HTB-44; EMEM + 10% FBS), LNCaP (ATCC, CRL-1740; RPMI 1640 + 10% FBS), SNU-1 (ATCC, CRL-5971; RPMI 1640 + 10% FBS), SCC-9 (Cobioer, CBP60428; DMEM/F12 (1:1) + 10% FBS + 0.5 mM sodium pyruvate + 400 ng/ml hydrocortisone), SU-DHL-5 (ATCC, CRL-2958; RPMI 1640 + 10% FBS), Toledo (ATCC, CRL-2631; RPMI 1640 + 10% FBS), and SJCRH30 (ATCC, CRL-2061; RPMI 1640 + 10% FBS) were thawed. Cells were passaged approximately twice, and those in good growth condition (typically passages 4-6) were selected for experiments. The medium was aspirated, and the cells were washed once with 0.25% trypsin (Invitrogen, 25200-072). The waste liquid was discarded, and 3 mL of fresh trypsin was added to the culture flask for digestion. When the cells began to detach, 9 mL of complete medium was added to neutralize the trypsin digestion, and the mixture was gently mixed. The cell suspension was transferred to a centrifuge tube using a pipette and centrifuged at 1000 rpm for 5 minutes. The supernatant was discarded, and 5 mL of medium was added to the centrifuge tube to gently resuspend the cells evenly. The cell concentration was adjusted to 1×10^4/mL-3×10^4/mL using a cell counter (Beckman Coulter, Vi-cellTM XR). The cell suspension was added to a 96-well plate (Corning, 3903) at 100 µL/well. The plate was labeled with details such as cell name, seeding density, and date, and then placed in a CO2 incubator (Thermo, Thermo 3111) overnight. Test compounds were prepared as 20 mM stock solutions in DMSO (Sigma, D4540-1L) and added to the corresponding cell wells using an HPD300 automated dispenser according to the designed layout. The plates were incubated in a 37°C, 5% CO2 incubator for 72 hours. CellTiter-Glo Buffer was thawed at room temperature. The lyophilized CellTiter-Glo substrate was equilibrated to room temperature. The CellTiter-Glo Buffer was added to the CellTiter-Glo substrate and thoroughly mixed. The cell plates were removed and equilibrated to room temperature, and 50 µL of the mixed CellTiter-Glo reagent was added to each well. The plates were protected from light and shaken for 10 minutes, followed by incubation for 10 minutes. The plates were placed in an Enspire reader (luminescence measurement time: 0.5 s) to record luminescence results. The inhibition rate was calculated using the following formula: Inhibition rate (%) = (1 - (RLU_compound - RLU_blank) / (RLU_DMSO - RLU_blank)) × 100%. Dose-response curves were plotted using XLFit to calculate IC50 values. A four-parameter model was used: [fit = (A + ((B - A) / (1 + ((C/x) ^ D)))]. The test results for HeLa cells are shown in Table 1. Table 1: IC50 values of some test compounds against human cervical cancer HeLa cells

Molecules are shown by their SMILES. pIC50: −log10 of the molar value.

One may read the pIC50 as −log10 of the IC50, conventionally taken in molar units. For `O=C1CCCc2c1[nH]c1cccc(CO)c21` [Compound B56], the pIC50 is at least 6.70.
In the case of `O=C1CCCc2c1[nH]c1cccc(-c3cn[nH]c3)c21` [Compound B58], the pIC50 was at least 6.70.
For the molecule `N#Cc1cccc2[nH]c3c(c12)CCCC3=O` [Compound B61], the pIC50 was at least 6.70.
For the molecule `O=C1CCCc2c1[nH]c1cccc(C3=CCOCC3)c21` [Compound B62], the pIC50 was at least 6.70.
On to `O=C1CCCc2c1[nH]c1cccc(N3CCOCC3)c21` [Compound B63], for which the negative-log IC50 (pIC50) is at least 6.70.
On to `CN(C)c1cccc2[nH]c3c(c12)CCCC3=O` [Compound B65], for which the pIC50 was at least 6.70.
For `O=C1CCCc2c1[nH]c1cccc(N3CCCC3)c21` [Compound B66], the pIC50 was at least 6.70.
With `C#Cc1cccc2[nH]c3c(c12)CCCC3=O` [Compound B68], the pIC50 is at least 6.70.
Regarding `Cc1noc(-c2cccc3[nH]c4c(c23)CCCC4=O)n1` [Compound B69], the pIC50 was at least 6.70.
In the case of `Cc1nnc(-c2cccc3[nH]c4c(c23)CCCC4=O)o1` [Compound B70], the pIC50 was at least 6.70.
Turning to `Cc1nsc(-c2cccc3[nH]c4c(c23)CCCC4=O)n1` [Compound B71], the pIC50 was at least 6.70.
With `CS(=O)(=O)c1cccc2[nH]c3c(c12)CCCC3=O` [Compound B74], the pIC50 is at least 6.70.
Take `NS(=O)(=O)c1cccc2[nH]c3c(c12)CCCC3=O` [Compound B75]: the pIC50 was at least 6.30.
For the molecule `CN(C)S(=O)(=O)c1cccc2[nH]c3c(c12)CCCC3=O` [Compound B76], the pIC50 was at least 6.70.
On to `CS(C)(=O)=Nc1cccc2[nH]c3c(c12)CCCC3=O` [Compound B80], for which the pIC50 was at least 6.30.
In the case of `CC(=O)c1cccc2[nH]c3c(c12)CCCC3=O` [Compound B82], the pIC50 was at least 6.70.
For `COC(=O)c1cc(F)cc2[nH]c3c(c12)CCCC3=O` [Compound B83], the pIC50 was at least 6.70.
As for `COC(=O)c1c(F)ccc2[nH]c3c(c12)CCCC3=O` [Compound B85], the pIC50 is at least 6.70.
Next, `COC(=O)c1c(C)ccc2[nH]c3c(c12)CCCC3=O` [Compound B87]: at least 6.70; `COC(=O)c1c(Cl)ccc2[nH]c3c(c12)CCCC3=O` [Compound B89]: at least 6.70.
As for `COC(=O)c1c(OC)ccc2[nH]c3c(c12)CCCC3=O` [Compound B91], the pIC50 was at least 6.70.
For the molecule `COc1ccc(Cn2nnc(-c3cccc4[nH]c5c(c34)CCCC5=O)n2)cc1` [Compound B94], the negative-log IC50 (pIC50) is at least 6.30.
Consider `O=C1CCCc2c1[nH]c1cccc(C(=O)OC3CCC3)c21` [Compound B95], for which the negative-log IC50 (pIC50) is at least 6.70.
For `O=C1CCCc2c1[nH]c1cccc(-c3ccncc3)c21` [Compound B96], the pIC50 was at least 6.70.
As to `Cc1cc(-c2cccc3[nH]c4c(c23)CCCC4=O)ccn1` [Compound B97], the pIC50 was at least 6.30.
Consider `Cc1nc(-c2cccc3[nH]c4c(c23)CCCC4=O)no1` [Compound B99], for which the pIC50 was at least 6.70.
Next, `CC(O)c1cccc2[nH]c3c(c12)CCCC3=O` (stereo not drawn) [Compound B105]: at least 6.30; `CCOC(=O)c1cccc2[nH]c3c(c12)SCCC3=O` [Compound B107]: at least 6.70.
As to `[2H]C([2H])([2H])C([2H])([2H])OC(=O)c1cccc2[nH]c3c(c12)CCCC3=O` [Compound B116], the pIC50 is at least 6.70.
In the case of `CCOC(=O)c1c(C)ccc2[nH]c3c(c12)CCCC3=O` [Compound B117], the pIC50 was at least 6.70.
Consider `CCOC(=O)c1c(Cl)ccc2[nH]c3c(c12)CCCC3=O` [Compound B118], for which the pIC50 is at least 6.70.
For the molecule `C#Cc1ccc(COC(=O)c2cccc3[nH]c4c(c23)CCCC4=O)s1` [Compound B120], the pIC50 was at least 6.70.
Next, `C#CC1(C(=O)Oc2cccc3[nH]c4c(c23)CCCC4=O)CC1` [Compound B121]: at least 6.30.
In the case of `CCn1ncc(-c2cccc3[nH]c4c(c23)CCCC4=O)n1` [Compound B123], the pIC50 was at least 6.70.
Next, `CC(C)n1ncc(-c2cccc3[nH]c4c(c23)CCCC4=O)n1` [Compound B124]: at least 6.70; `CCC#Cc1cccc2[nH]c3c(c12)CCCC3=O` [Compound B126]: at least 6.70; `O=C1CCCc2c1[nH]c1cccc(C(=O)OC3CC(O)C3)c21` (stereo not drawn) [Compound B129]: at least 6.70.
For `O=C1CCCc2c1[nH]c1cccc(C(=O)OC3CCC(O)CC3)c21` (stereo not drawn) [Compound B130], the negative-log IC50 (pIC50) is at least 6.70.
Turning to `COc1ccc2[nH]c3c(c2c1-c1cnn(C)n1)CCCC3=O` [Compound B134], the pIC50 is at least 6.70.
Next, `O=C1CCCc2c1[nH]c1cccc(C(=O)OC3CC(F)C3)c21` (stereo not drawn) [Compound B139]: at least 6.70.
In the case of `CC1(COC(=O)c2cccc3[nH]c4c(c23)CCCC4=O)COC1` [Compound B140], the pIC50 is at least 6.70.
As for `CC(O)CCC(C)OC(=O)c1cccc2[nH]c3c(c12)CCCC3=O` (stereo not drawn) [Compound B141], the pIC50 is at least 6.70.
`C[C@@H](O)COC(=O)c1cccc2[nH]c3c(c12)CCCC3=O` [Compound B147]: the pIC50 was at least 6.70.
For the molecule `NC(=O)COC(=O)c1cccc2[nH]c3c(c12)CCCC3=O` [Compound B148], the negative-log IC50 (pIC50) is at least 6.70.
With `O=C1CCCc2c1[nH]c1cccc(C(=O)OC(CO)CO)c21` [Compound B149], the pIC50 is at least 6.70.
Next, `C[C@H](O)COC(=O)c1cccc2[nH]c3c(c12)CCCC3=O` [Compound B150]: at least 6.70.
As for `C#Cc1ccc2[nH]c3c(c2c1C(=O)OCC)CCCC3=O` [Compound B153], the pIC50 is at least 6.70.
Turning to `Cn1cc(-c2cccc3[nH]c4c(c23)CCCC4=O)cn1` [Compound B154], the pIC50 is at least 6.70.
Next, `CCn1cc(-c2cccc3[nH]c4c(c23)CCCC4=O)cn1` [Compound B155]: at least 6.70; `O=C1CCCc2c1[nH]c1cccc(-c3cnn(C(F)F)c3)c21` [Compound B156]: at least 6.70; `O=C1CCCc2c1[nH]c1cccc(C(=O)Oc3cn[nH]c3)c21` [Compound B160]: at least 6.70.
With `Cc1cc(COC(=O)c2cccc3[nH]c4c(c23)CCCC4=O)n[nH]1` [Compound B163], the pIC50 is at least 6.70.
Consider `Cn1nc2ccccc2c1COC(=O)c1cccc2[nH]c3c(c12)CCCC3=O` [Compound B164], for which the pIC50 was at least 6.70.
On to `O=C1CCCc2c1[nH]c1cccc(C(=O)Oc3cccc4[nH]ncc34)c21` [Compound B166], for which the negative-log IC50 (pIC50) is at least 6.30.
Regarding `C=C=Cn1cc(-c2cccc3[nH]c4c(c23)CCCC4=O)cn1` [Compound B173], the pIC50 is at least 6.70.
For the molecule `N#CC1(COC(=O)c2cccc3[nH]c4c(c23)CCCC4=O)CC1` [Compound B175], the pIC50 is at least 6.30.
For the molecule `O=C1CCCc2c1[nH]c1cccc(C(=O)OC3CCC(O)C3)c21` (stereo not drawn) [Compound B177], the pIC50 is at least 6.70.

Source of the values: patent EP4711356A1, “TETRAHYDROCARBAZOLE DERIVATIVE, PHARMACEUTICAL COMPOSITION, AND USE THEREOF” (Nain Biotech (Hangzhou) Co., Ltd., priority 2023, dated 2024).
